From patent publication US20220089646A1 (THE UNIVERSITY OF QUEENSLAND, priority 2019, published 2022) come the findings set out here.

Molecules are shown by their SMILES. *1 amine or outer side, *2 acyl side, *3 side chain or, on linkers, in order; H or OH if unused. Where a SMILES comes first, the peptide text is derived from it. Bridges are numbered along the chain shown (N, C = ends). [ ]: non-standard residue; d: D form. NHCH2CMe2S = CC(C)(CN[*:1])S[*:2]

For one experiment, the target named is DOP (Homo sapiens, UniProt P41143). Briefly: Inhibition of Forskolin-induced cAMP production in HEK-DOP cells (AlphaScreen, DP series). It is filed as cell-based. The conditions noted are these: for IC50: Forskolin 50 μM/well, 95% CI in brackets; for IC80: approximate IC80, 'EC anything' protocol. The procedure: DP-7-11 and DP-7-12 were assessed for the ability to inhibit cAMP production in HEK-DOP and HEK KOP cells.
DOP, sequence (P41143 whole entry): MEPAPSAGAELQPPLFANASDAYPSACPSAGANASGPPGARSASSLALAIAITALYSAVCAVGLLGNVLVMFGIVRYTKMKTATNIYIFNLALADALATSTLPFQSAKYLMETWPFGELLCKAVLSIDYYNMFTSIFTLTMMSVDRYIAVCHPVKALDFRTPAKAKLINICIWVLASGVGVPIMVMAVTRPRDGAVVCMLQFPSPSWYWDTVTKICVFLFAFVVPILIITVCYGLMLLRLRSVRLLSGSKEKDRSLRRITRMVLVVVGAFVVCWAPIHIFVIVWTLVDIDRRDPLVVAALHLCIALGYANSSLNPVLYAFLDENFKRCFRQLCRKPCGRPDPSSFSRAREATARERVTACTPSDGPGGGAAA
The HEK-293 DOP (HEK-DOP) and HEK-293 KOP (HEK-KOP) cell lines were cultured in a T75 flask, in Dulbeco's Modified Eagle's Medium (DMEM) complete with 10% (v/v) fetal bovine serum (FBS) and 1% (v/v) Geneticin. Cells were incubated in a humidified atmosphere of 37° C. (95% air and 5% CO2). Cells were passaged at 80-90% confluence and media was changed every two days.
Stimulation buffer and Lysis buffer were prepared fresh on the day of each assay. Stimulation buffer contained 19.5 mL Hanks buffered saline solution, Bovine serum albumin (BSA) 0.1% (w/v), 0.5 mM 3-Isobutyl-1-methylxanthine (IBMX) and 5 mM HEPES (4-(2-hydroxyethyl)-1-piperazineethanesulfonic acid). Lysis buffer contained 19 mL Mili-Q H2O, BSA 0.1% (w/v), 0.3% (v/v) 10% Tween-20, and 5 mM HEPES. Both buffers were adjusted to pH 7.4 with NaOH.
The cAMP standard dilution series was prepared from the 50 μM cAMP standard solution provided by the cAMP assay kit. The standard solution was vortexed before being serially diluted to provide a concentration range of 5×10^−6 M to 5×10^−11 M in ½ Log intervals.
For this assay, Forskolin was optimised at 50 μM/well. 25 mM stocks were used to prepare 0.2 mM Forskolin. The concentration of Forskolin prepared was 4 times the required concentration in the well to account for further dilution in the well. 0.1 mM Forskolin solution was then made from this and used to dilute the peptide solutions.
DP-7-11 and DP-7-12 provided in powder form and reconstituted to 10 mM stock solutions and diluted to 1 mM working stocks using Mili-Q H2O. Each peptide solution was serially diluted to give concentrations of 1×10^−6 to 3×10^−7 M with stimulation buffer.
Stimulation buffer was added to the 0.2 mM Forskolin solution in a 1:1 ratio to prepare the Forskolin only treatment solution. This was the positive control. Stimulation buffer was used as the negative control.
Cells were harvested from two T75 flasks on the day of experimentation. Identical protocol was used for both DOP and KOP cells. The cells were first removed from the incubator and washed with Versene®. The cells were then incubated in 2 mL of Versene® at 37° C. for 5 minutes. Following this, the mixture was made up to 5 mL with Versene® in a centrifuge tube. This was centrifuged at 1300 rpm for 2 minutes at 23° C. The supernatant was then decanted and the cells resuspended in 100 μL stimulation buffer for counting. A hemocytometer was used to count the cells. This assay required the concentration of cells to be 13300 cells/μL
This method was used to conduct all cAMP Alphascreen assays. The acceptor bead mixture consisted of acceptor beads and stimulation buffer mixed according to the ratio 1:35 given in the kit. From this, the acceptor beads mixture was used to prepare separate mixtures for the cAMP standard curve and for the treatment wells of the assay. For the treatment wells, the beads were mixed with cells in a 1:1 ratio. For the cAMP standard curve, the beads were mixed with more stimulation buffer in a 1:1 ratio. The donor bead mixture consisted of donor beads, biotinylated cAMP and lysis buffer mixed in the ratio 1:3:300.
The DP series compounds were assayed as follows: The assay was performed using a 96 well ½ area plate. The different cAMP standard solutions (3 μL/well) were plated in duplicate. The different concentrations of drug (3 μL/well), and control solutions (3 μL/well) were plated in triplicate. Following this, the acceptor bead mixture (3 μL/well) was added to the respective sets—either cAMP standard curve or the treatment. This was covered and incubated on the orbital shaker for 30 minutes at room temperature. Then, the donor bead mixture (10 μL/well) was added to each well. This was incubated at room temperature overnight on the orbital shaker. […]

The next experiment deals with KOP (Homo sapiens, UniProt P41145). Briefly: cAMP assay with naloxone in HEK-KOP cells. It is filed as cell-based. The conditions noted are these: naloxone 100 μM/well; for Mean cAMP response (FIG. 14): HEK-KOP, naloxone assay, peptide at approximate IC80; for Naloxone reversal of cAMP inhibition through KOP: p<0.01. The procedure: The preparation of buffers, cAMP standard curve, bead solutions were carried out identically to the agonist assay.
KOP, sequence (P41145 whole entry): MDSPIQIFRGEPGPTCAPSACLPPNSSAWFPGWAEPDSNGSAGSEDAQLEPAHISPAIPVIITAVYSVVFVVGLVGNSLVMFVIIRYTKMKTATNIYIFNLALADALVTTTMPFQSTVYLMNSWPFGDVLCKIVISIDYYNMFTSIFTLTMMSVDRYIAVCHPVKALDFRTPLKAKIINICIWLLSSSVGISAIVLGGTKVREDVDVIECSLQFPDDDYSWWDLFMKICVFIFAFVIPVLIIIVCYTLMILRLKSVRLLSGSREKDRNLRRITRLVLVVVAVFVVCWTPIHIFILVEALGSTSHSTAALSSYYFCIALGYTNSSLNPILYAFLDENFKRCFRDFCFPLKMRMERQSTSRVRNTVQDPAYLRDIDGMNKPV
Forskolin had been optimised at 50 μM/well. Thus, the 25 mM stocks were used to prepare 300 μL of 0.3 mM Forskolin. The concentration of Forskolin prepared was 6 times the required concentration in the well to account for further dilution in the well. Forskolin solution was then made from this and used to dilute the drug solutions.
Approximate IC80 values were used for DP-7-11 and DP-7-12 to determine the ability of naloxone to reverse agonist inhibitory effect.
The desired concentration of naloxone was 100 μM/well. Thus, 100 μL of 600 μM naloxone was made up from 100 mM stock. This was 6 times the desired in-well concentration to account for further dilution in the well by Forskolin, peptide, cells and acceptor bead solutions.
Stimulation buffer was added to the 0.3 mM Forskolin solution to prepare the Forskolin only treatment solution as the positive control. Stimulation buffer used as the negative control.
The DP series compounds were assayed as follows: The different cAMP standard solutions (3 μL/well) were plated in duplicate. Naloxone solution was then plated (1 μL/well) for each treatment (DP-7-11, DP-7-12, Forskolin only and stimulation buffer) in triplicate. In the same way, stimulation buffer was plated (1 μL/well) for the same number of wells. This made up two sets of wells, antagonist and non-antagonist. Following this, the acceptor bead and cell mixture (3 μL/well) was added to the treatment wells. The plates were then covered and centrifuged at 280 g for 30 seconds before incubation on an orbital shaker for 30 minutes at room temperature. The acceptor bead mixture (3 μL/well) was then added to the cAMP standard curve wells, whilst the drug mixed with Forskolin solutions (3 μL/well) were added to the respective treatment wells in triplicate. Again, the plates were centrifuged at 280 g for 30 seconds, then covered and incubated on the orbital shaker for another 30 minutes. Finally, the donor bead mixture (10 μL/well) was added to each well. This was incubated at room temperature overnight on the orbital shaker.
The Ensight® Multimode Plate Reader was used to quantify the fluorescence units of each plate. Before reading, each plate was centrifuged at 280 g for 30 seconds. Using GraphPad Prism7® Software, cAMP concentrations were determined from the fluorescence data by fit spline/LOWESS analysis. The cAMP standard curve was used for interpolation at this point. The cAMP concentrations were then normalized to the highest cAMP concentration recorded and analyzed by one-way ANOVA for multiple comparisons. This analysis was corrected for multiple comparisons using Bonferroni. […]
(In general: cAMP levels reflect the balance of adenylyl cyclase and phosphodiesterase activity.)

The mark [1] stands for this setting: concentration-response curve, % cAMP.

`CC1(C)CNC(=O)C[C@@H](NC(=O)[C@@H](N)Cc2ccc(O)cc2)C(=O)NCC(=O)N[C@@H](Cc2ccccc2)C(=O)N[C@H](C(=O)N[C@@H](CCCNC(=N)N)C(=O)N[C@@H](CCCNC(=N)N)C(N)=O)CSS1` [DP-7-12, c(Tyr-D(Asp)-Gly-Phe-SSa-Arg-Arg)] (H-Y[dD]GFCRR-NH2; linker 2-5 via NHCH2CMe2S): on DOP, the IC50 stood at 0.608 nM and the 80% effect level (IC80) was put at 2.72 nM. Also, the “Potency at DOP relative to KOP” value at DOP (cAMP IC50 DOP vs KOP) is given as “ten times”. Besides, the “Maximum cAMP response, HEK-DOP” value on DOP (setting [1]) is on record as 14.03%. Moreover, on KOP, the “Mean cAMP response (FIG. 14)” value was found to be 52.40% and the “Naloxone reversal of cAMP inhibition through KOP” value is “reversed by naloxone”.
For `CC1(C)CNC(=O)C[C@H](C(=O)N[C@@H](CCCNC(=N)N)C(=O)N[C@@H](CCCNC(=N)N)C(N)=O)NC(=O)[C@H](Cc2ccccc2)NC(=O)CNC(=O)[C@@H](NC(=O)[C@@H](N)Cc2ccc(O)cc2)CSS1` [DP-7-11, c(Tyr-SSa-Gly-Phe-D(Asp)-Arg-Arg)], at DOP, 1.83 nM corresponded to half-maximal inhibition (IC50) and the IC80 is 24.1 nM. Besides, on DOP (setting [1]), the “Maximum cAMP response, HEK-DOP” value is reported as 93.79% and the “Minimum cAMP response, HEK-DOP” value stood at 23.13%. At KOP, the “Mean cAMP response (FIG. 14)” value came to 56.14% and the “Naloxone reversal of cAMP inhibition through KOP” value is recorded as “reversed by naloxone”.

The term IC50 denotes the concentration at which inhibition is half-maximal. By IC80 is commonly meant the concentration needed for an effect of 80%. A low value points to greater potency.
